For experiment [1], the system named is Staphylococcus aureus. As to the kind of experiment: In vitro antibacterial activity against Staphylococcus aureus MR. In kind it is functional.
Experiment [2] deals with Proteus mirabilis. In words: In vitro antibacterial activity against Proteus mirabilis. It is filed as functional.
Experiment [3] deals with Staphylococcus epidermidis. In words: In vitro antibacterial activity against Staphylococcus epidermidis. It is filed as functional.
For experiment [4], the system named is Escherichia coli. As to the kind of experiment: In vitro antibacterial activity against Escherichia coli. It is filed as functional.
For experiment [5], the system named is Pseudomonas aeruginosa. As to the kind of experiment: In vitro antibacterial activity against Pseudomonas aeruginosa VR5. It is filed as functional.
Experiment [6] relates to Pseudomonas aeruginosa. As to the kind of experiment: In vitro antibacterial activity against Pseudomonas aeruginosa ATCC 27853. In kind it is functional.
Experiment [7] concerns Streptococcus agalactiae. In words: In vitro antibacterial activity against Streptococcus agalactiae B. In kind it is functional.
For experiment [8], the system named is Moraxella catarrhalis. As to the kind of experiment: In vitro antibacterial activity against Branhamella catarrhalis. It is filed as functional.
Experiment [9] deals with Staphylococcus aureus. In words: In vitro antibacterial activity against Staphylococcus aureus MR09. It is filed as functional.
Experiment [10] has as its system Stenotrophomonas maltophilia. In words: In vitro antibacterial activity against Xanthomonas maltophilia. It is filed as functional.
For experiment [11], the system named is Escherichia coli. As to the kind of experiment: In vitro antibacterial activity against Escherichia. coli L. In kind it is functional.
For experiment [12], the system named is Providencia stuartii. As to the kind of experiment: In vitro antibacterial activity against Providencia stuartii. In kind it is functional.
For experiment [13], the system named is Pseudomonas aeruginosa. As to the kind of experiment: In vitro antibacterial activity against Pseudomonas aeruginosa G242. It is filed as functional.
In experiment [14] the test system is Streptococcus pneumoniae. As to the kind of experiment: In vitro antibacterial activity against Streptococcus pneumoniae. It is filed as functional.
In experiment [15] the test system is Staphylococcus aureus. As to the kind of experiment: In vitro antibacterial activity against Staphylococcus aureus MS. It is filed as functional.
Experiment [16] deals with Escherichia coli. As to the kind of experiment: In vitro antibacterial activity against Escherichia. coli SHV. In kind it is functional.
In experiment [17] the test system is Enterococcus faecalis. As to the kind of experiment: In vitro antibacterial activity against Enterococcus faecalis ATCC 29212. It is filed as functional.
Experiment [18] concerns Acinetobacter calcoaceticus subsp. anitratus. As to the kind of experiment: In vitro antibacterial activity against Acinetobacter anitratus. It is filed as functional.
For experiment [19], the system named is Aeromonas sp. In words: In vitro antibacterial activity against Aeromonas species. In kind it is functional.
Experiment [20] relates to Providencia rettgeri. As to the kind of experiment: In vitro antibacterial activity against Providencia rettgerii. It is filed as functional.
The test system of experiment [21] is Klebsiella aerogenes. As to the kind of experiment: In vitro antibacterial activity against Enterobacter aerogenes. In kind it is functional.
For experiment [22], the system named is Morganella morganii. In words: In vitro antibacterial activity against Morganella morganii. It is filed as functional.
Experiment [23] concerns Streptococcus pyogenes. As to the kind of experiment: In vitro antibacterial activity against Streptococcus pyogenes A. It is filed as functional.
For experiment [24], the system named is Staphylococcus aureus. In words: In vitro antibacterial activity against Staphylococcus aureus ATCC 25923. It is filed as functional.
The subject of experiment [25] is Pseudomonas aeruginosa. In words: In vitro antibacterial activity against Pseudomonas aeruginosa. In kind it is functional.
The test system of experiment [26] is Bacteroides fragilis. In words: In vitro antibacterial activity against Bacteroides fragilis. In kind it is functional.
The test system of experiment [27] is Staphylococcus aureus. As to the kind of experiment: In vitro antibacterial activity against Staphylococcus aureus ATCC 29213. In kind it is functional.
The subject of experiment [28] is Enterococcus faecium. In words: In vitro antibacterial activity against Enterococcus faecium. In kind it is functional.
The subject of experiment [29] is Listeria monocytogenes. In words: In vitro antibacterial activity against Listeria monocytogenes. In kind it is functional.
In experiment [30] the test system is Yersinia sp. As to the kind of experiment: In vitro antibacterial activity against Yersinia species. It is filed as functional, yersinia spp. The following applies: Yersinia sp. (in: enterobacteria).
In experiment [31] the test system is Escherichia coli. As to the kind of experiment: In vitro antibacterial activity against Escherichia. coli ATCC 25922. It is filed as functional.
Experiment [32] concerns Citrobacter freundii. In words: In vitro antibacterial activity against Citrobacter freundii. It is filed as functional.
Experiment [33] deals with Staphylococcus aureus. As to the kind of experiment: In vitro antibacterial activity against Staphylococcus aureus MR13. In kind it is functional.
In experiment [34] the test system is Escherichia coli. In words: In vitro antibacterial activity against Escherichia. coli TEM1. In kind it is functional.
Experiment [35] deals with Klebsiella pneumoniae. In words: In vitro antibacterial activity against Klebsiella pneumoniae. In kind it is functional.
For experiment [36], the system named is Haemophilus influenzae. As to the kind of experiment: In vitro antibacterial activity against Haemophilus influenzae. It is filed as functional.
Experiment [37] has as its system Escherichia coli. In words: In vitro antibacterial activity against Escherichia. coli DC2. In kind it is functional.
Experiment [38] has as its system Proteus vulgaris. In words: In vitro antibacterial activity against Proteus vulgaris. It is filed as functional.
Experiment [39] relates to Enterococcus faecalis. As to the kind of experiment: In vitro antibacterial activity against Enterococcus faecalis. It is filed as functional.
The subject of experiment [40] is Clostridium perfringens. In words: In vitro antibacterial activity against Clostridium perfringens. It is filed as functional.
Experiment [41] concerns Escherichia coli. In words: In vitro antibacterial activity against Escherichia. coli TEM2. It is filed as functional.

Molecules are shown by their SMILES. Values after ≈ are worked out from the molar mass of the structure shown.

With `C[C@@H](O)[C@H]1C(=O)N2C(C(=O)O)=C(CN(C)CC(N)=O)SC12` (stereo partly drawn), the MIC90 in [1] turned out to be 4 µg/mL (≈ 12.7 µM); in experiment [2], 1 µg/mL (≈ 3.17 µM); in experiment [3], 0.015 µg/mL (≈ 0.0476 µM); in experiment [4] it was 0.25 µg/mL (≈ 0.793 µM); in experiment [7] it was 0.06 µg/mL (≈ 0.19 µM); in [8], 0.25 µg/mL (≈ 0.793 µM). In addition, the MIC90 in experiment [10] is > 64 µg/mL; in experiment [12], 2 µg/mL (≈ 6.34 µM); in experiment [14], 0.06 µg/mL (≈ 0.19 µM); in [15] it was 0.0075 µg/mL (≈ 0.0238 µM); in experiment [18], 16 µg/mL (≈ 50.7 µM); in experiment [19], 1 µg/mL (≈ 3.17 µM). For the same molecule, the MIC90 in experiment [20] was 2 µg/mL (≈ 6.34 µM); in experiment [21] it was 2 µg/mL (≈ 6.34 µM); in experiment [22] it was 2 µg/mL (≈ 6.34 µM); in [23] it was 0.06 µg/mL (≈ 0.19 µM); in [25], > 64 µg/mL; in experiment [26], 2 µg/mL (≈ 6.34 µM). Also, the MIC90 in experiment [28] was > 64 µg/mL; in experiment [29], 0.5 µg/mL (≈ 1.59 µM); in experiment [30], 0.5 µg/mL (≈ 1.59 µM); in experiment [32], 1 µg/mL (≈ 3.17 µM); in [35] it was 0.5 µg/mL (≈ 1.59 µM); in [36] it was 2 µg/mL (≈ 6.34 µM). Further, the figures for the MIC90 in experiment [38], in experiment [39] and in [40] were 2 µg/mL (≈ 6.34 µM), 8 µg/mL (≈ 25.4 µM) and 0.5 µg/mL (≈ 1.59 µM), respectively. For the same molecule, the MIC was 0.5 µg/mL (≈ 1.59 µM) in experiment [5]; > 32 µg/mL in experiment [6]; 1 µg/mL (≈ 3.17 µM) in experiment [9]; 0.25 µg/mL (≈ 0.793 µM) in [11]; 4 µg/mL (≈ 12.7 µM) in experiment [13]; 0.5 µg/mL (≈ 1.59 µM) in experiment [16]. The minimal inhibitory concentration (MIC) in experiment [17] was 4 µg/mL (≈ 12.7 µM); in [24], < 0.03 µg/mL; in [27], 0.06 µg/mL (≈ 0.19 µM); in experiment [31], 0.25 µg/mL (≈ 0.793 µM); in experiment [33], 0.06 µg/mL (≈ 0.19 µM); in experiment [34], 0.25 µg/mL (≈ 0.793 µM). Besides, the minimal inhibitory concentration (MIC) in experiment [37] was 0.25 µg/mL (≈ 0.793 µM); in [41], 0.5 µg/mL (≈ 1.59 µM).
For `C[C@@H](O)[C@H]1C(=O)N2C(C(=O)O)=C(CSC(=S)N(C)CC(N)=O)SC12` (stereo partly drawn), the MIC was 4 µg/mL (≈ 10.2 µM) in experiment [5]; > 32 µg/mL in experiment [6]; 2 µg/mL (≈ 5.11 µM) in experiment [9]; 16 µg/mL (≈ 40.9 µM) in [11]; 8 µg/mL (≈ 20.4 µM) in experiment [13]; 16 µg/mL (≈ 40.9 µM) in experiment [16]. Also, the MIC was 8 µg/mL (≈ 20.4 µM) in experiment [17]; 0.12 µg/mL (≈ 0.307 µM) in [24]; 0.12 µg/mL (≈ 0.307 µM) in experiment [27]; 8 µg/mL (≈ 20.4 µM) in experiment [31]; 0.03 µg/mL (≈ 0.0766 µM) in [33]; 8 µg/mL (≈ 20.4 µM) in experiment [34]. Also, the minimal inhibitory concentration (MIC) in experiment [37] came out at 0.5 µg/mL (≈ 1.28 µM); in [41] it was 8 µg/mL (≈ 20.4 µM).
In the case of `C[C@@H](O)[C@H]1C(=O)N2C(C(=O)O)=C(CN(C)CC(=O)N(C)C)SC12` (stereo partly drawn), the MIC in [5] was 4 µg/mL (≈ 11.6 µM); in experiment [6] it was > 32 µg/mL; in [9], 4 µg/mL (≈ 11.6 µM); in experiment [11] it was 0.5 µg/mL (≈ 1.46 µM); in experiment [13], 0.5 µg/mL (≈ 1.46 µM); in experiment [16] it was 1 µg/mL (≈ 2.91 µM). Also, the minimum inhibitory concentration (MIC) in experiment [17] was 8 µg/mL (≈ 23.3 µM); in experiment [24] it was 0.12 µg/mL (≈ 0.349 µM); in experiment [27], 0.25 µg/mL (≈ 0.728 µM); in experiment [31], 0.5 µg/mL (≈ 1.46 µM); in experiment [33] it was 0.25 µg/mL (≈ 0.728 µM); in experiment [34], 1 µg/mL (≈ 2.91 µM). The minimum inhibitory concentration (MIC) in experiment [37] and in experiment [41] was 1 µg/mL (≈ 2.91 µM) each time.
Consider `CCCCOC(=O)CN(C)CC1=C(C(=O)O)N2C(=O)[C@H]([C@@H](C)O)C2S1` (stereo partly drawn), for which the MIC in experiment [5] was > 32 µg/mL; in experiment [6] it was > 32 µg/mL; in experiment [9], 16 µg/mL (≈ 43 µM); in experiment [11] it was > 32 µg/mL; in experiment [13] it was > 32 µg/mL; in experiment [16] it was > 32 µg/mL. The MIC in experiment [17] was 8 µg/mL (≈ 21.5 µM); in experiment [24] it was 0.25 µg/mL (≈ 0.671 µM); in experiment [27] it was 0.5 µg/mL (≈ 1.34 µM); in experiment [31], 32 µg/mL (≈ 85.9 µM); in [33], 0.5 µg/mL (≈ 1.34 µM); in experiment [34] it was > 32 µg/mL. In addition, the MIC in experiment [37] was 1 µg/mL (≈ 2.68 µM); in [41] it was > 32 µg/mL.

As a reminder, the MIC is the lowest concentration that inhibits growth of the organism. A high value points to a need for much substance.
